Assay results published in patent US20030188679A1, “Powdered mannitol and mannitol-containing compositions” (priority 2000, published 2003).

Test: Particle size result of micronised salbutamol sulphate
Type: physicochemical

## Salbutamol Sulphate
  Particle size result: MMD (Mass Mean Diameter): =2.53 μm.
  Particle size result: fraction of particles >1 μm: 90.17%
  Particle size result: size below which 90% of particles lie: <5.48 μm
